# Source: patent US20250043349A1, “DEORPHANIZING ODORS USING SINGLE CELL SEQUENCING” (PRESIDENT AND FELLOWS OF HARVARD COLLEGE, priority 2021, published 2025)
# Columns and labels:
# [1] = system: Olfr923; experiment: Act-Seq activation score in OSNs expressing Olfr923; type: in vivo, mouse; conditions: acetophenone vs 2-HA
# Description: (§1) Act-Seq (Wu et al., 2017) was performed following odor exposure to quantify odor-evoked responses in each OSN subtype (defined by their expressed OR) across the entire OR repertoire. Mice were habituated to a reversed light cycle for at least for 1 week before odor exposure, transferred to a new disposable cage with regular bedding/food and kept overnight in a satellite animal facility. On the experimental day, each mouse was first transferred to a new empty disposable cage during the dark cycle and habituated for 20 minutes. Empty cages were used to avoid any activation by odorants present within the environments in which the mice were housed. Odors were added to a piece of filter paper (100 μL of odorant) in a 35 mm petri dish and a cotton ball (200 μL of odorant) and placed in each cage. […]
# The remaining 169 activation genes that were also considered as HVGs often had weak loadings across multiple GEPs. […] To summarize the effects of odor activation across this set of activation genes, the TPT-expression of these activation genes were z-scored (using means and standard deviations for these genes in the control, acetophenone, and octanal datasets, identified by subsampling equal numbers of cells across all ORs expressed in at least 6 cells across 100 restarts). […] PCA was performed on the differences in z-scored activation gene expression between control and odor conditions. […]
# [2] = system: OSN subtypes; experiment: Persistence of transcriptional changes: 2 h odor exposure, 22 h home cage, scSeq ES scores; type: in vivo, mouse; conditions: two-hour exposure, measured after 24 hours
# Description: as §1, with “cage. After 2 hours, mice were euthanized, and dissociation was performed as described below. Odors used in this study were as follows.” for “cage.”
# Changes in ES scores were evaluated by comparing the ES scores for each OSN subtype across experimental conditions. […] The changes in ES scores and z-scored functional gene expression across conditions for each OSN subtype are described. The relative ES score change for each OSN subtype was calculated by subtracting the mean across all OSN subtypes, to normalize for any global changes across conditions that were present across the population of OSNs.
compound,measurement,setting,value
CC(=O)c1ccccc1 [acetophenone],activation scores for OSNs expressing Olfr923,[1],higher for acetophenone than 2-HA
same,ES scores after transient exposure,[2],did not change ES scores after 24 hours
